Test results as given in patent US7173062B2, “Method for the improvement of skin wrinkles using retinyl retinoate” (Enprani Co., Ltd., priority 2001, dated 2007).
Entries after “also recorded” stand apart in the source; their conditions may differ.

Assays:
[1] = test system: normal human fibroblast (Newborn); experiment: Cell toxicity test (MTT method); type: cell-based; conditions: comparison in words
Procedure: Cell toxicity of the compound of formula (1) is examined at concentrations ranging from 10^−6 to 10^−3%(W/V) using normal human fibroblast (Newborn), and the skin irritating property is examined by a patch test for the skin of normal adults. Further, the effect of increasing the collagen synthesis in a human fibroblast cell is measured to identify the cell regeneration effect of the compound of formula (1), photostability is identified by measuring ^1H NMR of the compound of formula (1) after the compound is irradiated by UV light (356 nm) at certain intervals of time, and thermal stability is identified by quantifying the amount at 40° C. (Experiments 1 to 5).
In order to verify the primary stability as a material for medicines and cosmetics, cell toxicity of the retinal retaliate of formula (1) was determined according to MTT method (see: Mossman T., Rapid calorimetric assay for cellular growth & amp;survival:application to proliferation & amp;cytotoxity assays. Journal of Immunological Methods 65, 55–63, 1983) using normal human fibroblast (Newborn) and the results are shown in FIG. 1.

[2] = Thermal stability test (quantitative HPLC); type: physicochemical; conditions: humidity 58%, in % (unit assumed)
Procedure: In order to compare thermal stability of the compound of formula (1) with retinol, phase stability for 1 month in a thermohygrostat (humidity: 58%) of room temperature, 40° C., and 4° C. was examined by a quantitative HPLC analysis under the following condition.
1) Column: Capcellpak UG 120 (5 μm, 4.6 mm*150 mm, shiseido, Japan)
3) Detector: UV(PDA 326 nm), • Fluorescence: Ex: 326nrm, Em: 460 nm

[3] = target: T1, RAR α (Homo sapiens, UniProt P10276); experiment: Activity for RAR α (CAT reporter in HaCaT cells); type: cell-based; conditions: 1 μM, CAT ELISA
T1 construct: expressed in transfected cells; host or cells: HaCaT
T1 sequence (P10276 1-462): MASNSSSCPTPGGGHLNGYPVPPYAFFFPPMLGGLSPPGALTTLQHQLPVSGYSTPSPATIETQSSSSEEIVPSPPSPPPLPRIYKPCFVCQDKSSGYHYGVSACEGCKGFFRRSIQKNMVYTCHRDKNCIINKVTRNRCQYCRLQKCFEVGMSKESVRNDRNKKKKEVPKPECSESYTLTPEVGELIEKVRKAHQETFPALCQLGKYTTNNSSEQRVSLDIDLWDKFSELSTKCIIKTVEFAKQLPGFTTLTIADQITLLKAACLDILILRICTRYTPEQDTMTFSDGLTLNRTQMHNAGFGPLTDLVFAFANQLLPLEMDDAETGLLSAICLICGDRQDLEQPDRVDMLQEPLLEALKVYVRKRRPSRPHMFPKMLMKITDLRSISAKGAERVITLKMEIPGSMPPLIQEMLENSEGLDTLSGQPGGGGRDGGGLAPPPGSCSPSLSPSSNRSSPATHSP
Procedure: (§1) The effect of the retinol derivatives on the activity of RAR and RXR was examined as follows.
(§2) Experimental procedure: Recombinant gene of DR5-tk-CAT or DR1-tk-CAT comprising DR1 or DR5 as a response element of RAR/RXR, […] promoter, and CAT (chloramphenicol acetyl transferase) was suitably combined with a plasmid DNA that expresses RAR α, β, γ and cotransfected to HaCaT cell line, a skin cancer cell line, with Lipofectamin (GibcoBRL). Then, the cells were incubated in DMEM/10% FBS medium for 1 day, retinol derivative was added in a concentration of 1 μM, and the cells were incubated again for 1 day under the condition of 5% CO2 and 37° C. The cells were washed with phosphate-buffered salione (PBS). Proteins were extracted from each cell, the activity of β-galactosidase was assayed, and the amount of protein was measured to determine the transfection efficiency. Further, the degree of transcription for RAR or RXR was analyzed by CAT ELISA (Roche Molecular Biochemicals, Mannheim, Germany).

[4] = target: T2, RAR γ (Homo sapiens, UniProt P13631); experiment: Activity for RAR γ (CAT reporter in HaCaT cells); type: cell-based; conditions: 1 μM, CAT ELISA
T2 construct: expressed in transfected cells; host or cells: HaCaT
T2 sequence (P13631 1-454): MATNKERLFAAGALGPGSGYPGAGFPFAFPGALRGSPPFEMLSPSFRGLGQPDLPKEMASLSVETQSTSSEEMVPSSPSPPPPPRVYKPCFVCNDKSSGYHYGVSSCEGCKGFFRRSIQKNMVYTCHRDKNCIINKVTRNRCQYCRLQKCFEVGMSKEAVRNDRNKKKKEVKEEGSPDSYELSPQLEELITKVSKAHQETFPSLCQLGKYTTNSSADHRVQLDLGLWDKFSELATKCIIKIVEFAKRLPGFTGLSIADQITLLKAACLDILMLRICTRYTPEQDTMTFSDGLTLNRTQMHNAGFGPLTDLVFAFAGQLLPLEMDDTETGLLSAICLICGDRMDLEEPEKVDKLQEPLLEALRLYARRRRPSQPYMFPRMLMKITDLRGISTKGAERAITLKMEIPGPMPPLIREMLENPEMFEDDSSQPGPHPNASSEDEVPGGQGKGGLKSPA
Procedure: as §1, §2

[5] = test system: RXR α, β, γ; experiment: Activity for RXR (CAT reporter in HaCaT cells); type: cell-based; conditions: 1 μM, CAT ELISA
Procedure: as §1, §2

[6] = test system: AP-1 (comprising c-Jun protein); experiment: Inhibition of activity of AP-1 protein (Coll-CAT collagenase promoter reporter in HaCaT cells); type: cell-based; conditions: for inhibition of the expression of collagenase: cells treated together with RAR α (c-Jun expressed)
Procedure: AP-1 (comprising c-Jun protein) is a transcription factor inducing the expression of collagenase that is a major cause of skin wrinkles. […] Therefore, studies thereabout were carried out in a similar manner to Experiment 6 as follows.
Experimental procedure: CAT reporter (Coll-CAT) having the collagenase promoter wherein AP-1 response element (TRE) is contained, was transfected into HaCaT cell line, a skin cancer cell line, using a liposome. Then, the degree of inhibition against the activity of AP-1 by retinol derivatives was measured through CAT ELISA in a similar manner to Experiment 6. Further, the effect of retinol derivatives on the transcriptional activity of c-Jun (a protein that induces transfer of cancer, skin aging and inflammation, and consists of homologous isomers or heterologous isomers), a constitutional element of AP-1, was examined by cotransfecting c-Jun or RAR α expression vector.

[7] = Control = 1.0, listed as compound of formula (1)
[8] = Condition of expression: c-Jun + RAR α, HaCaT, Coll-CAT, untreated = 8.6
[9] = Condition of expression: c-Jun, HaCaT, Coll-CAT, untreated = 8.6
[10] = Condition of expression: — (no c-Jun or RAR α vector), HaCaT, Coll-CAT, untreated = 1.0

| Structure (SMILES) | Thermal stability (amount by quantitative HPLC) ([2]; After 1 week, 4° C.) | Thermal stability (amount by quantitative HPLC) ([2]; After 1 week, 40° C.) | Thermal stability (amount by quantitative HPLC) ([2]; After 1 week, r.t.) | Thermal stability (amount by quantitative HPLC) ([2]; After 2 weeks, 4° C.) | Thermal stability (amount by quantitative HPLC) ([2]; After 2 weeks, 40° C.) | Thermal stability (amount by quantitative HPLC) ([2]; After 2 weeks, r.t.) | Thermal stability (amount by quantitative HPLC) ([2]; After 4 weeks, 4° C.) | Thermal stability (amount by quantitative HPLC) ([2]; After 4 weeks, 40° C.) | Thermal stability (amount by quantitative HPLC) ([2]; After 4 weeks, r.t.) | Thermal stability (amount by quantitative HPLC) ([2]; Initial value, 4° C.) | Thermal stability (amount by quantitative HPLC) ([2]; Initial value, 40° C.) | Thermal stability (amount by quantitative HPLC) ([2]; Initial value, r.t.) | Relative activity against RAR α ([3]; Control = 1.0) | Relative activity against RAR γ ([4]; Control = 1.0) | Relative activity against RXR α, β, γ ([5]; Control = 1.0) | Relative inhibition against the expression of collagenase [6, 8] | Relative inhibition against the expression of collagenase [6, 9] | Relative inhibition against the expression of collagenase [6, 10] | inhibition of the expression of collagenase [6] | also measured |
| --- | --- | --- | --- | --- | --- | --- | --- | --- | --- | --- | --- | --- | --- | --- | --- | --- | --- | --- | --- | --- |
| CC1=C(/C=C/C(C)=C/C=C/C(C)=C/COC(=O)/C=C(C)/C=C/C=C(C)/C=C/C2=C(C)CCCC2(C)C)C(C)(C)CCC1 [Compound of formula (1), Retinyl retinoate] | 100 | 74.46 | 92.77 | 100 | 70.25 | 90.45 | 99.65 | 68.23 | 89.21 | 100 | 100 | 100 | 22.5 | 1.1 | 1.0 | 4.1 | 6.7 | 0.7 | about 52% | cell toxicity (FIG. 1) [1]: lower intracellular toxicity than retinol, retinoic acid, or derivatives thereof; Relative activity against RAR α [3, 7]: relatively specific and high activity; Relative activity against RAR γ [4, 7]: lower activity than retinoic acid but higher one than retinol; also recorded: low activity; effect on / inhibitory activity against c-Jun (AP-1), in words ([6]; HaCaT, Coll-CAT, c-Jun / RAR α cotransfection): lower inhibitory activity against c-Jun than retinoic acid, but higher one than retinol |
| CC1=C(/C=C/C(C)=C/C=C/C(C)=C/CO)C(C)(C)CCC1 [Retinol] | 100 | 56.08 | 74.27 | 98.23 | 43.26 | 65.23 | 95.52 | 34.51 | 52.23 | 100 | 100 | 100 | 27.5 | 0.9 | 1.0 | 5.8 | 7.3 | 0.8 | about 33% | Relative activity against RXR α, β, γ ([5]; Control = 1.0, listed as retinol): no activity |
